Measurements published in patent US4613596A, “Amino methyl furans and pharmaceutical compositions” (Magis Farmaceutrici s.r.l., priority 1982, dated 1986).

What was measured:
[1] = Acute toxicity (LD50) in mouse; format: in vivo; conditions: in vivo, 10 days observation
Procedure: (§1) Acute toxicity was studied in male and female mice of Swiss stock, and in male and female albino rats of Wistar stock, by administering the active principle orally, intravenously and intramuscularly.
(§2) For each method of administration, doses in geometrical progression were administered to 10 animals for each dose over a period of observation of 10 days.
(§3) On termination of the period of observation, the LD50 and the relative reliability limits were calculated by the method of Litchfield and Wilcoxon (Pharmacol. Exp. Ther., 96-19, 1949).

[2] = Acute toxicity (LD50) in rat; format: in vivo; conditions: in vivo, 10 days observation
Procedure: as §1, §2, §3

mice of Swiss stock = assay: Acute toxicity (LD50) in mouse; format: in vivo; conditions: 10 days observation; for LD50, mouse, intram. admin.: intramuscular; for LD50, mouse, intrav. admin.: intravenous; for LD50, mouse, oral admin.: Litchfield and Wilcoxon
Procedure: as §1, §2, §3

[3] = tested on: albino rats of Wistar stock; assay: Acute toxicity (LD50) in rat; format: in vivo; conditions: 10 days observation; for LD50, rat, intram. admin.: intramuscular; for LD50, rat, intrav. admin.: intravenous
Procedure: as §1, §2, §3

[4] = tested on: gastric ulcers induced by the ligature of the pylorus; assay: Gastric ulcers induced by ligature of the pylorus; format: in vivo, rat (Sprague Dawley); conditions: oral, one hour after operation; compounds and ranitidine 1, 3, 10, 30 mg/kg; cimetidine 3, 10, 30, 100 mg/kg
Procedure: To study the effect of the new compounds according to the present invention, 50 male and female rats of Sprague Dawley stock weighing approximately 200 grams were used for each compound examined.
The animals, under diet, were subjected to legature of the pylorus.
One hour after this operation, the animals were treated orally either with doses of 1, 3, 10 and 30 mg/kg of the examined compounds, or with doses of 3, 10, 30 and 100 mg/kg of cimetidine, or with doses of 1, 3, 10 and 30 mg/kg of ranitidine.

[5] = im, intramuscular, read-out: LD50, mouse, intram. admin.
[6] = intravenous, read-out: LD50, mouse, intrav. admin.
[7] = oral, Litchfield and Wilcoxon, read-out: LD50, mouse, oral admin.
[8] = im, intramuscular, read-out: LD50, rat, intram. admin.
[9] = intravenous, read-out: LD50, rat, intrav. admin.
[10] = oral, read-out: LD50, rat, oral admin.

| Compound | LD50 at 240 h [1, 5] | LD50 at 240 h [1, 6] | LD50 at 240 h [1, 7] | LD50 at 240 h [2, 8] | LD50 at 240 h [2, 9] | LD50, mouse, intram. admin. (mice of Swiss stock) | LD50, mouse, intrav. admin. (mice of Swiss stock) | LD50, mouse, oral admin. (mice of Swiss stock) | LD50, rat, intram. admin. [3] | LD50, rat, intrav. admin. [3] | LD50, rat, oral admin. ([3]; oral) | Inhibition of incidence of gastric ulcers induced by ligature of the pylorus [4] | LD50 at 240 h [2, 10] |
| --- | --- | --- | --- | --- | --- | --- | --- | --- | --- | --- | --- | --- | --- |
| CN(C)Cc1ccc(CSCCNC(=C[N+](=O)[O-])N2CCCCC2)o1 | 300 mg/kg | 90 mg/kg | 2600 mg/kg | 2100 mg/kg | 100 mg/kg |  |  |  |  |  |  |  |  |
| CN(C)Cc1ccc(CSCCNC(=C[N+](=O)[O-])NC2CC3C=CC2C3)o1 (stereo not drawn) [AU/020] | 300 mg/kg | 110 mg/kg | 2700 mg/kg | 2100 mg/kg | 110 mg/kg |  |  |  |  |  |  |  |  |
| CN(C)Cc1ccc(CSCCNC(=C[N+](=O)[O-])NCC2=CCC=CC2)o1 [AU/011, N-[2-[[5-[(dimethylamino)methyl]furfuryl]thio]ethyl]-N'-(1,4-cyclohexadienyl-2-methyl)-2-nitro-1,1-ethenediamine] |  |  |  |  |  | 310 mg/kg | 90 mg/kg | 2700 mg/kg | 2100 mg/kg | 110 mg/kg | 5510.0 mg/kg |  |  |
| CN(C)Cc1ccc(CSCCNC(=C[N+](=O)[O-])NC2CCCCC2)o1 [AU/009, N-[2-[[5-[(dimethylamino)methyl]furfuryl]thio]ethyl]-N'-(cyclohexyl)-2-nitro-1,1-ethenediamine] | 300 mg/kg | 100 mg/kg | 2600 mg/kg | 2200 mg/kg | 110 mg/kg |  |  |  |  |  |  |  |  |
| CC1CCN(C(=C[N+](=O)[O-])NCCSCc2ccc(CN(C)C)o2)CC1 [AU/002, 1-N-[2-[[5-[(dimethylamino)methyl]furfuryl]thio]ethyl]amino-1-(4-methyl-piperidino)-2-nitro-ethene] | 320 mg/kg | 100 mg/kg | 2700 mg/kg | 2000 mg/kg | 100 mg/kg |  |  |  |  |  |  |  |  |
| CN(C)Cc1ccc(CSCCNC(=C[N+](=O)[O-])N2CCCC2)o1 [AU/017, 1-N-[2-[[5-[(dimethylamino)methyl]furfuryl]thio]ethyl]-amino-1-pyrrolidino-2-nitroethene] | 300 mg/kg | 100 mg/kg | 2600 mg/kg | 2200 mg/kg | 100 mg/kg |  |  |  |  |  |  |  |  |
| CN(C)Cc1ccc(CSCCNC(=C[N+](=O)[O-])N2CCOCC2)o1 [AU/018, 1-N-[2-[[5-[(dimethylamino)methyl]furfuryl]thio]ethyl]-amino-1-morpholino-2-nitroethene] | 350 mg/kg | 90 mg/kg | 2700 mg/kg | 2200 mg/kg | 100 mg/kg |  |  |  |  |  |  |  |  |
| N-[2-[[5-[(dimethylamino)methyl]furfuryl]thio]ethyl]-N'-(1,4-cyclohexadienyl-2-ethyl)-2-nitro-1,1-ethenediamine [AU/012] |  |  |  |  |  | 300 mg/kg | 90 mg/kg | 2800 mg/kg | 2100 mg/kg | 110 mg/kg |  |  |  |
| CN(C)Cc1ccc(CSCCNC(=C[N+](=O)[O-])N2CCN(Cc3ccccc3)CC2)o1 [AU/006, 1-N-[2-[[5-[(dimethylamino)methyl]furfuryl]thio]ethyl]amino-1-(4-benzyl-piperazino)-2-nitroethene] | 300 mg/kg | 90 mg/kg | 2700 mg/kg | 2100 mg/kg | 100 mg/kg |  |  |  |  |  |  |  |  |
| CCN1CCCC(NC(=C[N+](=O)[O-])NCCSCc2ccc(CN(C)C)o2)C1 (stereo not drawn) [AU/003] | 300 mg/kg | 90 mg/kg | 2800 mg/kg | 2200 mg/kg | 100 mg/kg |  |  |  |  |  |  |  |  |
| CNC(=C[N+](=O)[O-])NCCSCc1ccc(CN(C)C)o1 [ranitidine] |  |  |  |  |  |  |  |  |  |  |  | significantly inhibit the incidence of gastric ulcers |  |
| CN(C)Cc1ccc(CSCCNC(=C[N+](=O)[O-])N2CC2)o1 [AU/007, 1-N-[2-[[5-[(dimethylamino)methyl]furfuryl]thio]ethyl]amino-1-ethyleneimino-2-nitroethene] | 310 mg/kg | 100 mg/kg | 2800 mg/kg | 2100 mg/kg | 100 mg/kg |  |  |  |  |  |  |  |  |
| CN(C)Cc1ccc(CSCCNC(=C[N+](=O)[O-])NN2CCCCCC2)o1 [AU/014, N-[2-[[5-[(dimethylamino)methyl]furfuryl]thio]ethyl]-N'-(hexamethyleneimino)-2-nitro-1,1-ethenediamine] | 300 mg/kg | 90 mg/kg | 2600 mg/kg | 2200 mg/kg | 100 mg/kg |  |  |  |  |  |  |  |  |
| CN(C)Cc1ccc(CSCCNC(=C[N+](=O)[O-])N2CCCCCC2)o1 [AU/013, 1-N-[2-[[5-[(dimethylamino)methyl]furfuryl]thio]ethyl]-amino-1-hexamethyleneimino-2-nitroethene] | 300 mg/kg | 90 mg/kg | 2700 mg/kg | 2100 mg/kg | 100 mg/kg |  |  |  |  |  |  |  | 5530 mg/kg |
| CN(C)Cc1ccc(CSCCNC(=C[N+](=O)[O-])N2CCC(Cc3ccccc3)CC2)o1 [AU/005, 1-N-[2-[[5-[(dimethylamino)methyl]furfuryl]thio]ethyl]-amino-1-(4-benzyl-piperidino)-2-nitroethene] | 300 mg/kg | 95 mg/kg | 2700 mg/kg | 2100 mg/kg | 110 mg/kg |  |  |  |  |  |  |  | 5500 mg/kg |
| CN(C)Cc1ccc(CSCCNC(=C[N+](=O)[O-])NC2CCCC2)o1 [AU/016, N-[2-[[5-[(dimethylamino)methyl]furfuryl]thio]ethyl]-N'-cyclopentyl-2-nitro-1,1-ethenediamine] | 300 mg/kg | 90 mg/kg | 2700 mg/kg | 2200 mg/kg | 100 mg/kg |  |  |  |  |  |  |  |  |
| CN(C)Cc1ccc(CSCCNC(=C[N+](=O)[O-])N2CCC2)o1 [AU/008, 1-N-[2-[[5-[(dimethylamino)methyl]furfuryl]thio]ethyl]amino-1-cyclopropyleneimino-2-nitroethene] | 310 mg/kg | 100 mg/kg | 2600 mg/kg | 2200 mg/kg | 100 mg/kg |  |  |  |  |  |  |  |  |
| CN(C)Cc1ccc(CSCCNC(=C[N+](=O)[O-])N[C@H]2C[C@H]3CC[C@@H]2C3)o1 (relative stereo) [AU/019] | 300 mg/kg | 100 mg/kg | 2600 mg/kg | 2100 mg/kg | 120 mg/kg |  |  |  |  |  |  |  |  |
| CN(C)Cc1ccc(CSCCNC(=C[N+](=O)[O-])NC2CCCCCC2)o1 [AU/015, N-[2-[[5-[(dimethylamino)methyl]furfuryl]thio]ethyl]-N'-cycloheptyl-2-nitro-1,1-ethenediamine] | 300 mg/kg | 100 mg/kg | 2800 mg/kg | 2200 mg/kg | 100 mg/kg |  |  |  |  |  |  |  |  |
| CN(C)Cc1ccc(CSCCNC(=C[N+](=O)[O-])N2CCN(CCO)CC2)o1 [AU/004, 1-N-[2-[[5-[(dimethylamino)methyl]furfuryl]thio]ethyl]-amino-1-4-(2-hydroxyethyl)-1-piperazino ethene] | 300 mg/kg | 95 mg/kg | 2700 mg/kg | 2000 mg/kg | 110 mg/kg |  |  |  |  |  |  |  |  |
| CN/C(=N/CCSCc1nc[nH]c1C)NC#N [cimetidine] |  |  |  |  |  |  |  |  |  |  |  | significantly inhibit the incidence of gastric ulcers |  |
| CN(C)Cc1ccc(CSCCNC(=C[N+](=O)[O-])NC2=CCC=CC2)o1 [AU/010, N-[2-[[5-[(dimethylamino)methyl]furfuryl]thio]ethyl]-N'-(1,4-ciclohexadienyl)-2-nitro-1,1-ethenediamine] |  |  |  |  |  | 310 mg/kg | 95 mg/kg | 2700 mg/kg | 2200 mg/kg | 110 mg/kg |  |  |  |
